Measured values as given in patent US20250145628A1, “PYRAZOLOPYRIMIDINES, COMPOSITIONS COMPRISING THEM AND USES THEREOF” (Novo Nordisk A/S, priority 2022, published 2025).

Columns and labels:
human CB1 receptor [1] = target: T1, human CB1 receptor (Homo sapiens, UniProt P21554); test: bioSensAll β-arrestin plasma membrane translocation BRET biosensor (+GRK2) assay (antagonism of CP-55,940); format: cell-based; settings: HEK293 cells transfected with hCB1 and β-arrestin PM translocation biosensor (+GRK2), EC75 of CP-55,940 (100 nM), overnight incubation, read-out: CB1 wt βarr2 IC50
T1 construct: expressed in transfected cells; host or cells: HEK293
Experimental: (§1) Using polyethylenimine (PEI) transfection agent, HEK293 cells were transfected in suspension with the human CB1 or CB1b receptor and one of the following bioSensAll® assays: GAPL-Gi2, or β-arrestin plasma membrane (PM) translocation biosensor (+GRK2). Cells were directly seeded in 96-well plates immediately following transfection.
(§2) Cells were incubated with coelenterazine (luciferase substrate) and different test compounds prior to the measurement of BRET signals.
ii) The multimolecular β-arrestin membrane recruitment biosensors allow for real-time spatio-temporal monitoring of β-arrestin 1 and β-arrestin 2 following GPCR activation. Specifically, these β-arrestin sensors were designed to detect the recruitment of proteins to the plasma membrane (β-arrestin PM) with localization to compartment resulting in an increased BRET signal.
(§3) HEK293 cells were maintained in Dulbecco's Modified Eagle Medium (DMEM) (Wisent; cat #319-030-CL: without sodium pyruvate, with 4.5 g/L glucose, without L-glutamine) supplemented with 1% penicillin-streptomycin (Wisent; cat #450-201-EL) and 2 or 10% fetal bovine serum (Wisent cat #090150).
(§4) HEK293 cells were co-transfected with hCB1 or hCB1b and one of the above-listed bioSensAll® assays. For each transfection condition: • the total amount of transfected DNA was kept constant at 1 μg per mL of cell culture to be transfected; whenever necessary, salmon sperm DNA (Invitrogen, cat #15632011) was used as ‘carrier’ DNA to supplement plasmid DNA (i.e., biosensor and receptor); • the PEI (polyethylenimine 25 kDa linear, PolyScience, cat #23966) to DNA ratio (ug:ug) was fixed at 3:1.
(§5) Transfections were carried out as follows: • DNA and PEI were first diluted separately in 150 mM NaCl. The volume of the diluent in each tube corresponds to 5% of the cell culture volume to be transfected. • Once DNA and PEI were diluted, the PEI-containing solution was added to the DNA solution and the DNA/PEI mixture immediately vortexed for 5 seconds. • The DNA/PEI mixture was incubated for at least 20 minutes at room temperature to allow for the formation of DNA/PEI complexes. • During the incubation, HEK293 cells were detached, counted and re-suspended in culture medium (composition specified above). • At the end of the incubation period, the DNA/PEI mixture was added to the cells. • Cells were finally distributed in 96-well plates (White Opaque 96-well/Microplates, Greiner, cat #655083 or CulturPlate-96, White Opaque 96-well Microplate, PerkinElmer, cat #6005688) at a density of 30 000 cells per well.
(§6) At ˜48 hours post-transfection: • Using 450-Select TS Biotek plate washer, culture medium was aspirated and replaced with 100 μl of Hank's Balanced Salt Solution buffer (HBSS) (Wisent, cat #319-067CL: without red phenol; with sodium bicarbonate, with calcium and magnesium, with HEPES) per well. This process was performed a total of two times (i.e., 2 washes). • After the washing step, the HP D300 digital dispenser (Tecan) was used to inject increasing doses (12) of test compounds (ranging from 0-600 nM) to wells. Three to five minutes later, an EC75 of CP-55,940 (0.1 nM for GAPL-Gi2 assay; 100 nM for β-arrestin PM translocation biosensor (+GRK2)) was added to columns 2-12 of each 96-well plate.
(§7) BRET signals were determined by calculating the ratio of light emitted by GFP-acceptor (515 nm) over light emitted by luciferase-donor (400 nm). All BRET ratios were standardized using the equation below with pre-established BRET values for positive and negative controls. The standardized BRET ratio is referred to as universal BRET (uBRET).
(§8) Resulting dose-response curves were fitted using the four-parameter logistic non-linear regression model in GraphPad Prism 9.

human CB1 receptor [2] = target: T1, human CB1 receptor; test: bioSensAll GAPL-Gi2 BRET biosensor assay (antagonism of CP-55,940); format: cell-based; settings: HEK293 cells transfected with hCB1 and GAPL-Gi2 biosensor, EC75 of CP-55,940 (0.1 nM), overnight incubation, read-out: CB1 wt Gi2 IC50
Experimental: as §1, §2
i) GAPL sensors are used to monitor the activation of heterotrimeric G proteins at the plasma membrane upon receptor stimulation. Specifically, these multimolecular BRET sensors detect the plasma membrane recruitment of proteins that interact with active Ga subunits in a G protein family-selective manner. G protein activation following receptor stimulation generally leads to an increase in the BRET signal.
as §3, §4, §5, §6, §7, §8

T1 sequence (P21554 whole entry): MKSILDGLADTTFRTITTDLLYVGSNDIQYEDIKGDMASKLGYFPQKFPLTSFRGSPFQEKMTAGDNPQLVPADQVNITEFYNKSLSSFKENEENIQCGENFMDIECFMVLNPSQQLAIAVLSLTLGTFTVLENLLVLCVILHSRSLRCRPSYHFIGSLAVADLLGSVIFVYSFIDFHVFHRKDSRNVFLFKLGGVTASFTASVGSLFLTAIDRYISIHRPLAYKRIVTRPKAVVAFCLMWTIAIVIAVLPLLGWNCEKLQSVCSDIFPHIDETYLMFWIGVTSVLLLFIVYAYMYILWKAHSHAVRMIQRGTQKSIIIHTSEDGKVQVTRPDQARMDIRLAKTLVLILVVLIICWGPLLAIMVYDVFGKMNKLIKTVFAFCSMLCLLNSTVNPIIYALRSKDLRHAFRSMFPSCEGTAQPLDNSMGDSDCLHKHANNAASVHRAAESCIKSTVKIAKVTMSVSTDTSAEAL

SMILES | IC50 (human CB1 receptor [1]) | IC50 (human CB1 receptor [2])
O=S(=O)(N1CCN(c2cc(N3CCC[C@H]3CO)nc3c(-c4ccc(Cl)cc4)c(-c4ccccc4Cl)nn23)CC1)C(F)(F)F [Compound 7, [(2S)-1-[2-(2-chlorophenyl)-3-(4-chlorophenyl)-7-[4-(trifluoromethylsulfonyl)piperazin-1-yl]pyrazolo[1,5-a]pyrimidin-5-yl]pyrrolidin-2-yl]methanol] | 3.31 nM | 1.55 nM
CNC(=O)CCN(C)c1cc(N2CCC[C@@H](C(N)=O)C2)n2nc(-c3ccccc3Cl)c(-c3ccc(Cl)cc3)c2n1 [Compound 41, (3R)-1-[2-(2-chlorophenyl)-3-(4-chlorophenyl)-5-[methyl-[3-(methylamino)-3-oxo-propyl]amino]pyrazolo[1,5-a]pyrimidin-7-yl]piperidine-3-carboxamide] | 161 nM | 93 nM
CC(C)(O)COc1cc(N2CCC(C)(C(N)=O)CC2)n2nc(-c3ccc(C#N)nc3)c(-c3ccc(Cl)cc3)c2n1 [Compound 54, 1-[3-(4-chlorophenyl)-2-(6-cyano-3-pyridyl)-5-(2-hydroxy-2-methyl-propoxy)pyrazolo[1,5-a]pyrimidin-7-yl]-4-methyl-piperidine-4-carboxamide] | 2.43 nM | 1.02 nM
CC1(C(N)=O)CCN(c2cc(N3CCC[C@H]3C(=O)O)nc3c(-c4ccc(Cl)cc4)c(-c4ccccc4Cl)nn23)CC1 [Compound 18, (2S)-1-[7-(4-carbamoyl-4-methyl-1-piperidyl)-2-(2-chlorophenyl)-3-(4-chlorophenyl)pyrazolo[1,5-a]pyrimidin-5-yl]pyrrolidine-2-carboxylic acid] | 109 nM | 56.2 nM
CC1(C(N)=O)CCN(c2cc(N3CCC[C@H]3C(N)=O)nc3c(-c4ccc(Cl)cc4)c(-c4ccccc4Cl)nn23)CC1 [Compound 37, 1-[5-[(2S)-2-carbamoylpyrrolidin-1-yl]-2-(2-chlorophenyl)-3-(4-chlorophenyl)pyrazolo[1,5-a]pyrimidin-7-yl]-4-methyl-piperidine-4-carboxamide] | 35.3 nM | 5.91 nM
CN(CP(C)(C)=O)c1cc(N2CC(CC(N)=O)C2)n2nc(-c3ccccc3Cl)c(-c3ccc(Cl)cc3)c2n1 [Compound 33, 2-[1-[2-(2-chlorophenyl)-3-(4-chlorophenyl)-5-[dimethylphosphorylmethyl(methyl)amino]pyrazolo[1,5-a]pyrimidin-7-yl]azetidin-3-yl]acetamide] | 116 nM | > 10000 nM
O[C@@H]1CCN(c2cc(-c3ccc(C(F)(F)F)nc3)n3nc(-c4ccccc4Cl)c(-c4ccc(Cl)cc4)c3n2)C1 [Compound 72(R)] | 3.33 nM | 1.33 nM
CN(C)C(=O)CN(C)c1cc(N2CC(CC(N)=O)C2)n2nc(-c3ccccc3Cl)c(-c3ccc(Cl)cc3)c2n1 [Compound 32, 2-[1-[2-(2-chlorophenyl)-3-(4-chlorophenyl)-5-[[2-(dimethylamino)-2-oxo-ethyl]-methyl-amino]pyrazolo[1,5-a]pyrimidin-7-yl]azetidin-3-yl]acetamide] | > 10000 nM | 584 nM
CN(CCOCCO)c1cc(N2CCC(C)(C(N)=O)CC2)n2nc(-c3ccccc3Cl)c(-c3ccc(Cl)cc3)c2n1 [Compound 66, 1-[2-(2-chlorophenyl)-3-(4-chlorophenyl)-5-[2-(2-hydroxyethoxy)ethyl-methyl-amino]pyrazolo[1,5-a]pyrimidin-7-yl]-4-methyl-piperidine-4-carboxamide] | 47.3 nM | 7.3 nM
CCNC(=O)CN(C)c1cc(N2CCC(OCC)(C(N)=O)CC2)n2nc(-c3ccccc3Cl)c(-c3ccc(Cl)cc3)c2n1 [Compound 48, 1-[2-(2-chlorophenyl)-3-(4-chlorophenyl)-5-[[2-(ethylamino)-2-oxo-ethyl]-methyl-amino]pyrazolo[1,5-a]pyrimidin-7-yl]-4-ethoxy-piperidine-4-carboxamide] | 19.4 nM | 3.89 nM
